The values below are quoted from earlier work in publication PMC4906314, “Direct interaction of beta-amyloid with Na,K-ATPase as a putative regulator of the enzyme function” (Scientific Reports, 2016).

The data set has as its target Na,K-ATPase. Conditions: at the same conditions; read-out: Kd for complexes of Na,K-ATPase with CTS.

Each structure is given as a SMILES string.

Consider `C[C@]12CC[C@H](O)C[C@@]1(O)CC[C@@H]1[C@@H]2CC[C@]2(C)[C@@H](c3ccc(=O)oc3)C[C@H]3O[C@]132` [marinobufagenin], for which the dissociation constant Kd is 1500 nM.
